# Data published in US20240166652A1, “MODULATORS OF THE INTEGRATED STRESS PATHWAY” (Calico Life Sciences LLC, priority 2017, published 2024).
# Tested on: ATF4 luciferase reporter in HEK293T cells
# Experiment: ATF4-Luc assay (ATF4 luciferase reporter, tunicamycin-treated HEK293T cells)
# Format: cell-based, human
# Conditions: Homo sapiens, HEK-293T; HEK293T cells carrying the ATF4 luciferase reporter, 1 μg/mL tunicamycin, 7 hours
row,Structure (SMILES),EC50
1,"O=C(COc1ccc(F)c(C(F)F)c1)NC12CCC(NC(=O)COc3ccc(Cl)cc3)(CC1)[C@@H](O)C2 [Compound 774, 2-(4-chlorophenoxy)-N-[(2S)-4-{2-[3-(difluoromethyl)-4-fluorophenoxy]acetamido}-2-hydroxybicyclo[2.2.2]octan-1-yl]acetamide]",< 10 nM
2,"O=C(COc1ccc(Cl)c(F)c1)NC12CCC(NC(=O)COc3cc(-c4ccccc4)n(-c4ccccc4)n3)(CC1)[C@@H](O)C2 [Compound 513, 2-(4-chloro-3-fluorophenoxy)-N-[(3S)-4-{2-[(1,5-diphenyl-1H-pyrazol-3-yl)oxy]acetamido}-3-hydroxybicyclo[2.2.2]octan-1-yl]acetamide]",> 2000 nM
3,"Cc1ccc(OCC(=O)NC23CCC(NC(=O)COc4ccc(F)c(F)c4)(CC2)[C@@H](O)C3)cc1F [Compound 734, 2-(3,4-difluorophenoxy)-N-{(2S)-4-[2-(3-fluoro-4-methylphenoxy)acetamido]-2-hydroxybicyclo[2.2.2]octan-1-yl}acetamide]",< 10 nM
4,"O=C(COc1ccc(Cl)c(F)c1)NC12CCC(NC(=O)COc3ccc(Cl)c(F)c3)(CC1)C(O)C2 (stereo not drawn) [Compound 273, N,N′-(2-hydroxybicyclo[2.2.2]octane-1,4-diyl)bis[2-(4-chloro-3-fluorophenoxy)acetamide]]",< 10 nM
5,"O=C(COc1ccc(Cl)c(F)c1)NC12CCC(O)C(NC(=O)COc3ccc(Cl)c(F)c3)(CC1)C2 (stereo not drawn) [Compound 670, N,N′-(2-hydroxybicyclo[3.2.1]octane-1,5-diyl)bis[2-(4-chloro-3-fluorophenoxy)acetamide]]",500 to 2000 nM
6,"O=C(COc1ccc(OC(F)F)c(F)c1)NC12CCC(NC(=O)COc3ccc(Cl)c(F)c3)(CC1)[C@@H](O)C2 [Compound 801, 2-(4-chloro-3-fluorophenoxy)-N-[(2S)-4-{2-[4-(difluoromethoxy)-3-fluorophenoxy]acetamido}-2-hydroxybicyclo[2.2.2]octan-1-yl]acetamide]",< 10 nM
7,"Cc1cccc(CCOCC(=O)NC23CC(NC(=O)COc4ccc(Cl)c(Cl)c4)(C2)C3)c1 [Compound 152, 2-(3,4-dichlorophenoxy)-N-(3-{2-[2-(3-methylphenyl)ethoxy]-acetamido}bicyclo[1.1.1]pentan-1-yl)acetamide]",50 to 250 nM
8,"O=C(COc1ccc(Cl)c(Cl)c1)NC12CC(NC(=O)COc3ccc(Cl)c(Cl)c3)(C1)C2 [Compound 106, N,N′-(bicyclo[1.1.1]pentane-1,3-diyl)bis[2-(3,4-dichlorophenoxy)acetamide]]",< 10 nM
9,"N[C@H](CC(=O)NC12CC(NC(=O)COc3ccc(Cl)c(F)c3)(C1)C2)Cc1ccccc1 [Compound 810, (3S)-3-amino-N-{3-[2-(4-chloro-3-fluorophenoxy)acetamido]bicyclo[1.1.1]pentan-1-yl}-4-phenylbutanamide]",> 2000 nM
10,"O=C(COc1ccc(Cl)c(F)c1)NC12CCC(NCc3nc4cc(F)ccc4[nH]3)(CC1)C[C@@H]2O [Compound 647, 2-(4-chloro-3-fluorophenoxy)-N-[(2S)-4-{[(5-fluoro-1H-benzimidazol-2-yl)methyl]amino}-2-hydroxybicyclo[2.2.2]octan-1-yl]acetamide]",50 to 250 nM
11,"COc1cc(OCC(=O)NC23CCC(NC(=O)COc4ccc(Cl)c(F)c4)(CC2)[C@@H](O)C3)ncn1 [Compound 666, 2-(4-chloro-3-fluorophenoxy)-N-[(2S)-2-hydroxy-4-{2-[(6-methoxypyrimidin-4-yl)oxy]acetamido}bicyclo[2.2.2]octan-1-yl]acetamide]",50 to 250 nM
12,"O=C(COCc1ccc(F)cc1)NC12CC(NC(=O)COc3ccc(Cl)c(F)c3)(C1)C2 [Compound 142, 2-(4-chloro-3-fluorophenoxy)-N-(3-{2-[(4-fluorophenyl)methoxy]acetamido}-bicyclo[1.1.1]pentan-1-yl)acetamide]",10 to 50 nM
13,"O=C(COc1ccc(Cl)c(F)c1)NC12CC(NC(=O)COc3ccccc3F)(C1)C2 [Compound 411, 2-(4-chloro-3-fluorophenoxy)-N-{3-[2-(2-fluorophenoxy)acetamido]bicyclo[1.1.1]pentan-1-yl}acetamide]",10 to 50 nM
14,"COC(=O)[C@@H]1CC2(NC(=O)COc3ccc(Cl)c(F)c3)CCC1(NC(=O)COc1ccc(Cl)c(F)c1)CC2 [Compound 563, methyl (2R)-1,4-bis[2-(4-chloro-3-fluorophenoxy)acetamido]bicyclo[2.2.2]octane-2-carboxylate]",< 10 nM
15,"Cc1cc(Cl)ncc1OCC(=O)NC12CC(NC(=O)COc3ccc(Cl)c(F)c3)(C1)C2 [Compound 243, 2-(4-chloro-3-fluorophenoxy)-N-(3-{2-[(6-chloro-4-methylpyridin-3-yl)oxy]acetamido}bicyclo[1.1.1]pentan-1-yl)acetamide]",250 to 500 nM
16,"O=C(Cc1ccc(Cl)cn1)NC12CCC(NC(=O)COc3ccc(Cl)c(F)c3)(CC1)[C@@H](O)C2 [Compound 606, 2-(4-chloro-3-fluorophenoxy)-N-{(2S)-4-[2-(5-chloropyridin-2-yl)acetamido]-2-hydroxybicyclo[2.2.2]octan-1-yl}acetamide]",50 to 250 nM
17,"O=C(COc1ccc(OC(F)(F)F)cc1)NC12CC(NC(=O)COc3ccc(Cl)c(F)c3)(C1)C2 [Compound 393, 2-(4-chloro-3-fluorophenoxy)-N-(3-{2-[4-(trifluoromethoxy)phenoxy]acetamido}bicyclo[1.1.1]pentan-1-yl)acetamide]",< 10 nM

row,Structure (SMILES),EC50
1,"O=C(COc1ccc(Cl)c(F)c1)NC12CC(NC(=O)COc3cnc(C(F)(F)F)c(Cl)c3)(C1)C2 [Compound 222, 2-(4-chloro-3-fluorophenoxy)-N-[3-(2-{[5-chloro-6-(trifluoromethyl)pyridin-3-yl]oxy}acetamido)bicyclo[1.1.1]pentan-1-yl]acetamide]",< 10 nM
2,"O=C(COc1ccc(Cl)c(CO)c1)NC12CC(NC(=O)COc3ccc4c(c3)OC(F)(F)O4)(C1)C2 [Compound 276, 2-[4-chloro-3-(hydroxymethyl)phenoxy]-N-(3-{2-[(2,2-difluoro-2H-1,3-benzodioxol-5-yl)oxy]acetamido}bicyclo[1.1.1]pentan-1-yl)acetamide]",10 to 50 nM
3,"CS(=O)(=O)c1cc(OCC(=O)NC23CCC(NC(=O)COc4ccc(F)cc4)(CC2)[C@@H](O)C3)ccc1F [Compound 819, 2-[4-fluoro-3-(methanesulfonyl)phenoxy]-N-{(3S)-4-[2-(4-fluorophenoxy)acetamido]-3-hydroxybicyclo[2.2.2]octan-1-yl}acetamide]",500 to 2000 nM
4,"O=C(COc1ccc(Cl)c(F)c1)NC12CC(NC(=O)COc3ccc(Cl)cn3)(C1)C2 [Compound 213, 2-(4-chloro-3-fluorophenoxy)-N-(3-{2-[(5-chloropyridin-2-yl)oxy]acetamido}bicyclo[1.1.1]pentan-1-yl)acetamide]",50 to 250 nM
5,"O=C(COc1ccc(Cl)c(F)c1)NC12CCC(NC(=O)CNc3ccc(Cl)cc3)(CC1)[C@@H](O)C2 [Compound 657, 2-(4-chloroanilino)-N-{(2S)-4-[2-(4-chloro-3-fluorophenoxy)acetamido]-2-hydroxybicyclo[2.2.2]octan-1-yl}acetamide]",50 to 250 nM
6,"O=C(COc1ccc(Cl)c(Cl)c1)NC12CCC(NC(=O)OCc3ccccc3)(C1)C2 [Compound 193, benzyl {4-[2-(3,4-dichlorophenoxy)acetamido]bicyclo[2.1.1]hexan-1-yl}carbamate]",> 2000 nM
7,"O=C(COc1ccc(Cl)cc1)NC12CCC(NC(=O)COc3ccc(F)c(F)c3)(CC1)[C@@H](O)C2 [Compound 618, 2-(4-chlorophenoxy)-N-{(3S)-4-[2-(3,4-difluorophenoxy)acetamido]-3-hydroxybicyclo[2.2.2]octan-1-yl}acetamide]",< 10 nM
8,"CN(CC(=O)O)C1CC2(NC(=O)COc3ccc(Cl)c(F)c3)CCC1(NC(=O)COc1ccc(Cl)c(F)c1)CC2 (stereo not drawn) [Compound 700, [{1,4-bis[2-(4-chloro-3-fluorophenoxy)acetamido]bicyclo[2.2.2]octan-2-yl}(methyl)amino]acetic Acid]",250 to 500 nM
9,"O=C(COc1ccc(Cl)c(F)c1)NC12CCC(NC(=O)Oc3ccc(Cl)cc3)(CC1)C(O)C2 (stereo not drawn) [Compound 436, 4-chlorophenyl {4-[2-(4-chloro-3-fluorophenoxy)acetamido]-2-hydroxybicyclo[2.2.2]octan-1-yl}carbamate]",50 to 250 nM
10,"CC(C)(CNC12CC(NC(=O)COc3ccc(Cl)c(F)c3)(C1)C2)Oc1ccc(Cl)cc1 [Compound 641, 2-(4-chloro-3-fluorophenoxy)-N-(3-{[2-(4-chlorophenoxy)-2-methylpropyl]amino}bicyclo[1.1.1]pentan-1-yl)acetamide]",> 2000 nM
11,"COc1cc(Cl)ccc1OCC(=O)NC12CC(NC(=O)COc3ccc(Cl)c(F)c3)(C1)C2 [Compound 412, 2-(4-chloro-3-fluorophenoxy)-N-{3-[2-(4-chloro-2-methoxyphenoxy)acetamido]bicyclo[1.1.1]pentan-1-yl}acetamide]",50 to 250 nM
12,"O=C(COc1ccc(Cl)c(F)c1)NC12CC(NC(=O)Cc3cccc(OC(F)(F)F)c3)(C1)C2 [Compound 361, 2-(4-chloro-3-fluorophenoxy)-N-(3-{2-[3-(trifluoromethoxy)phenyl]acetamido}bicyclo[1.1.1]pentan-1-yl)acetamide]",> 2000 nM
13,"O=C(COc1ccc(Cl)c(F)c1)NC12CCC(NC(=O)COc3ccc4ccccc4c3)(CC1)[C@@H](O)C2 [Compound 517, 2-(4-chloro-3-fluorophenoxy)-N-[(3S)-3-hydroxy-4-{2-[(naphthalen-2-yl)oxy]acetamido}bicyclo[2.2.2]octan-1-yl]acetamide]",< 10 nM
14,"O=C(COc1ccc(Cl)c(F)c1)NC12CC(NC(=O)OCc3ccccc3)(C1)C2 [Compound 192, benzyl {3-[2-(4-chloro-3-fluorophenoxy)acetamido]bicyclo[1.1.1]pentan-1-yl}carbamate]",500 to 2000 nM
15,"O=C(COc1ccc(Cl)c(F)c1)N[C@@H]1C[C@@H]2C[C@H]1C[C@H]2NC(=O)COc1ccc(Cl)c(F)c1 (single isomer, unassigned) [Compound 621]",< 10 nM
16,"O=C(COc1cnc(C(F)(F)F)nc1)NC12CCC(NC(=O)COc3ccc(Cl)c(F)c3)(CC1)[C@@H](O)C2 [Compound 627, 2-(4-chloro-3-fluorophenoxy)-N-[(2S)-2-hydroxy-4-(2-{[2-(trifluoromethyl)pyrimidin-5-yl]oxy}acetamido)bicyclo[2.2.2]octan-1-yl]acetamide]",< 10 nM
